Measurements reported in US10131652B2, “Pyrimidinyloxy benzene derivatives as herbicides” (E. I. DU PONT DE NEMOURS AND COMPANY, priority 2014, dated 2018).

Assays:
Format in all cases: in vivo
[1] = tested on: morningglory (Ipomoea spp.); test: Test B pre-/postemergence plant response
Procedure, shortened: (§1)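 Visual injury scores on a 0–100 scale (100 = complete control) relative to untreated plants, taken about 10 days post-treatment in greenhouse. Treatments were a directed preemergence soil spray and a postemergence spray at one- to two-leaf stage, using surfactant-containing solvent formulation.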

[2] = tested on: pigweed (Amaranthus retroflexus); test: Test B pre-/postemergence plant response
Procedure, shortened: as §1

corn (Zea mays) = test: Test B pre-/postemergence plant response
Procedure, shortened: as §1

[3] = tested on: velvetleaf (Abutilon theophrasti); test: Test B pre-/postemergence plant response
Procedure, shortened: as §1

[4] = tested on: barnyardgrass (Echinochloa crus-galli); test: Test B pre-/postemergence plant response
Procedure, shortened: as §1

[5] = tested on: large (Lg) crabgrass (Digitaria sanguinalis); test: Test B pre-/postemergence plant response
Procedure, shortened: as §1

[6] = tested on: giant foxtail (Setaria faberii); test: Test B pre-/postemergence plant response
Procedure, shortened: as §1

[7] = tested on: wheat (Triticum aestivum); test: Test B pre-/postemergence plant response
Procedure, shortened: as §1

[8] = tested on: small-flower umbrella sedge (Cyperus difformis); test: Test C flooded paddy test plant response; conditions: Flood, 250 g ai/ha; scale of 0 to 100 where 0 is no effect and 100 is complete control; 13 to 15 days
Procedure, shortened: (§2)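 Plants grown to the 2-leaf stage; pots flooded to 3 cm above soil, test compounds applied directly to paddy water, depth maintained throughout. Greenhouse for 13 to 15 days, then visual rating versus controls on a 0–100 scale (0 no effect, 100 complete control).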

[9] = tested on: ducksalad (Heteranthera limosa); test: Test C flooded paddy test plant response; conditions: Flood, 250 g ai/ha; scale of 0 to 100 where 0 is no effect and 100 is complete control; 13 to 15 days
Procedure, shortened: as §2

rice (Oryza sativa) = test: Test C flooded paddy test plant response; conditions: Flood, 250 g ai/ha; scale of 0 to 100 where 0 is no effect and 100 is complete control; 13 to 15 days
Procedure, shortened: as §2

[10] = tested on: barnyardgrass (Echinochloa crus-galli); test: Test C flooded paddy test plant response; conditions: Flood, 250 g ai/ha; scale of 0 to 100 where 0 is no effect and 100 is complete control; 13 to 15 days
Procedure, shortened: as §2

[11] = 125 g ai/ha, postemergence, 0 to 100 scale, 0 no effect, 100 complete control
[12] = Postemergence, 500 g ai/ha, 0 to 100 scale (0 no effect, 100 complete control)
[13] = Preemergence, 125 g ai/ha, 0 to 100 scale where 0 is no effect and 100 is complete control
[14] = Preemergence, 500 g ai/ha, 0 to 100 scale where 0 is no effect and 100 is complete control
[15] = Postemergence, 1000 g ai/ha, 0 to 100 scale (0 no effect, 100 complete control)
[16] = Preemergence, 1000 g ai/ha, 0 to 100 scale (0 no effect, 100 complete control)

With `FC(F)(F)c1ccc(-c2ccccc2Oc2ncc(Cl)cn2)cc1` [Compound 43] the “Plant response rating, Morningglory” value [1, 11] was 0, the “Plant response rating, Morningglory” value [1, 12] was 20 and the “Plant response rating, Morningglory” value [1, 13] was 0. The “Plant response rating, Morningglory” value [1, 14] was 10, the “Plant response rating, Pigweed” value [2, 11] was 30 and the “Plant response rating, Pigweed” value [2, 12] was 70. The “Plant response rating, Pigweed” value [2, 13] was 0, the “Plant response rating, Pigweed” value [2, 14] was 0 and the “Plant response rating, Corn” value (corn (Zea mays); [11]) was 0. For the same molecule, the “Plant response rating, Corn” value (corn (Zea mays); [12]) was 10, the “Plant response rating, Corn” value (corn (Zea mays); [13]) was 0 and the “Plant response rating, Corn” value (corn (Zea mays); [14]) was 0. The “Plant response rating, Velvetleaf” value [3, 11] was 20, the “Plant response rating, Velvetleaf” value [3, 12] was 70 and the “Plant response rating, Velvetleaf” value [3, 13] was 0. The “Plant response rating, Velvetleaf” value [3, 14] was 10, the “Plant response rating, Barnyardgrass” value [4, 11] was 0 and the “Plant response rating, Barnyardgrass” value [4, 12] was 20. The “Plant response rating, Barnyardgrass” value [4, 13] was 0, the “Plant response rating, Barnyardgrass” value [4, 14] was 20 and the “Plant response rating, Crabgrass, Large” value [5, 11] was 0. The “Plant response rating, Crabgrass, Large” value [5, 12] was 20, the “Plant response rating, Crabgrass, Large” value [5, 13] was 0 and the “Plant response rating, Crabgrass, Large” value [5, 14] was 30. The “Plant response rating, Foxtail, Giant” value [6, 11] was 0, the “Plant response rating, Foxtail, Giant” value [6, 12] was 20 and the “Plant response rating, Foxtail, Giant” value [6, 13] was 0. For the same molecule, the “Plant response rating, Foxtail, Giant” value [6, 14] was 70, the “Plant response rating, Wheat” value [7, 11] was 0 and the “Plant response rating, Wheat” value [7, 12] was 0. For the same molecule, the “Plant response rating, Wheat” value [7, 13] was 0, the “Plant response rating, Wheat” value [7, 14] was 0 and the “Sedge, Umbrella plant response rating” value [8] was 0. The “Ducksalad plant response rating” value [9] was 0, the “Rice plant response rating” value (rice (Oryza sativa)) was 0 and the “Barnyardgrass plant response rating” value [10] was 0.
`Cc1ccc(Oc2ncc(Cl)cn2)c(-c2cccc(OC(F)(F)F)c2)c1` [Compound 44] was tested, and the “Plant response rating, Morningglory” value [1, 11] was 20, the “Plant response rating, Morningglory” value [1, 12] was 30 and the “Plant response rating, Morningglory” value [1, 13] was 0. For the same molecule, the “Plant response rating, Morningglory” value [1, 14] was 0, the “Plant response rating, Pigweed” value [2, 11] was 20 and the “Plant response rating, Pigweed” value [2, 12] was 50. The “Plant response rating, Pigweed” value [2, 13] was 0, the “Plant response rating, Pigweed” value [2, 14] was 10 and the “Plant response rating, Corn” value (corn (Zea mays); [11]) was 0. For the same molecule, the “Plant response rating, Corn” value (corn (Zea mays); [12]) was 20, the “Plant response rating, Corn” value (corn (Zea mays); [13]) was 0 and the “Plant response rating, Corn” value (corn (Zea mays); [14]) was 0. The “Plant response rating, Velvetleaf” value [3, 11] was 30, the “Plant response rating, Velvetleaf” value [3, 12] was 70 and the “Plant response rating, Velvetleaf” value [3, 13] was 0. The “Plant response rating, Velvetleaf” value [3, 14] was 20, the “Plant response rating, Barnyardgrass” value [4, 11] was 10 and the “Plant response rating, Barnyardgrass” value [4, 12] was 20. For the same molecule, the “Plant response rating, Barnyardgrass” value [4, 13] was 0, the “Plant response rating, Barnyardgrass” value [4, 14] was 10 and the “Plant response rating, Crabgrass, Large” value [5, 11] was 10. For the same molecule, the “Plant response rating, Crabgrass, Large” value [5, 12] was 20, the “Plant response rating, Crabgrass, Large” value [5, 13] was 10 and the “Plant response rating, Crabgrass, Large” value [5, 14] was 70. The “Plant response rating, Foxtail, Giant” value [6, 11] was 0, the “Plant response rating, Foxtail, Giant” value [6, 12] was 10 and the “Plant response rating, Foxtail, Giant” value [6, 13] was 0. The “Plant response rating, Foxtail, Giant” value [6, 14] was 10, the “Plant response rating, Wheat” value [7, 11] was 0 and the “Plant response rating, Wheat” value [7, 12] was 0. The “Plant response rating, Wheat” value [7, 13] was 0, the “Plant response rating, Wheat” value [7, 14] was 0 and the “Sedge, Umbrella plant response rating” value [8] was 0. The “Ducksalad plant response rating” value [9] was 0, the “Rice plant response rating” value (rice (Oryza sativa)) was 0 and the “Barnyardgrass plant response rating” value [10] was 0.
`Fc1cccc(Oc2ncc(Cl)cn2)c1-c1cccc(OC(F)(F)F)c1` [Compound 46] was tested, and the “Plant response rating, Morningglory” value [1, 15] was 70, the “Plant response rating, Morningglory” value [1, 16] was 10 and the “Plant response rating, Pigweed” value [2, 15] was 100. The “Plant response rating, Pigweed” value [2, 16] was 100, the “Plant response rating, Corn” value (corn (Zea mays); [15]) was 20 and the “Plant response rating, Corn” value (corn (Zea mays); [16]) was 0. For the same molecule, the “Plant response rating, Velvetleaf” value [3, 15] was 100, the “Plant response rating, Velvetleaf” value [3, 16] was 20 and the “Plant response rating, Barnyardgrass” value [4, 15] was 90. For the same molecule, the “Plant response rating, Barnyardgrass” value [4, 16] was 80, the “Plant response rating, Crabgrass, Large” value [5, 15] was 100 and the “Plant response rating, Crabgrass, Large” value [5, 16] was 100. For the same molecule, the “Plant response rating, Foxtail, Giant” value [6, 15] was 100, the “Plant response rating, Foxtail, Giant” value [6, 16] was 100 and the “Plant response rating, Wheat” value [7, 15] was 20. The “Plant response rating, Wheat” value [7, 16] was 10, the “Sedge, Umbrella plant response rating” value [8] was 50 and the “Ducksalad plant response rating” value [9] was 60. The “Rice plant response rating” value (rice (Oryza sativa)) was 35 and the “Barnyardgrass plant response rating” value [10] was 20.
In the case of `FC(F)(F)c1cc(-c2ccccc2Oc2ncc(Br)cn2)on1` [Compound 64], the “Plant response rating, Morningglory” value [1, 11] was 70, the “Plant response rating, Morningglory” value [1, 12] was 100 and the “Plant response rating, Morningglory” value [1, 13] was 0. The “Plant response rating, Morningglory” value [1, 14] was 60, the “Plant response rating, Pigweed” value [2, 11] was 100 and the “Plant response rating, Pigweed” value [2, 12] was 100. The “Plant response rating, Pigweed” value [2, 13] was 100, the “Plant response rating, Pigweed” value [2, 14] was 100 and the “Plant response rating, Corn” value (corn (Zea mays); [11]) was 20. For the same molecule, the “Plant response rating, Corn” value (corn (Zea mays); [12]) was 30, the “Plant response rating, Corn” value (corn (Zea mays); [13]) was 0 and the “Plant response rating, Corn” value (corn (Zea mays); [14]) was 20. The “Plant response rating, Velvetleaf” value [3, 11] was 100, the “Plant response rating, Velvetleaf” value [3, 12] was 100 and the “Plant response rating, Velvetleaf” value [3, 13] was 80. For the same molecule, the “Plant response rating, Velvetleaf” value [3, 14] was 90, the “Plant response rating, Barnyardgrass” value [4, 11] was 90 and the “Plant response rating, Barnyardgrass” value [4, 12] was 100. For the same molecule, the “Plant response rating, Barnyardgrass” value [4, 13] was 60, the “Plant response rating, Barnyardgrass” value [4, 14] was 100 and the “Plant response rating, Crabgrass, Large” value [5, 11] was 60. The “Plant response rating, Crabgrass, Large” value [5, 12] was 90, the “Plant response rating, Crabgrass, Large” value [5, 13] was 100 and the “Plant response rating, Crabgrass, Large” value [5, 14] was 100. For the same molecule, the “Plant response rating, Foxtail, Giant” value [6, 11] was 60, the “Plant response rating, Foxtail, Giant” value [6, 12] was 80 and the “Plant response rating, Foxtail, Giant” value [6, 13] was 90. The “Plant response rating, Foxtail, Giant” value [6, 14] was 100, the “Plant response rating, Wheat” value [7, 11] was 0 and the “Plant response rating, Wheat” value [7, 12] was 10. For the same molecule, the “Plant response rating, Wheat” value [7, 13] was 0, the “Plant response rating, Wheat” value [7, 14] was 30 and the “Sedge, Umbrella plant response rating” value [8] was 80. For the same molecule, the “Ducksalad plant response rating” value [9] was 95, the “Rice plant response rating” value (rice (Oryza sativa)) was 0 and the “Barnyardgrass plant response rating” value [10] was 35.
